Results reported in ChEMBL document CHEMBL5725462, “Substituted triazolopyridines” (2017).

Target: T1, Dual specificity protein kinase TTK (Homo sapiens, UniProt P33981)
T1 sequence (P33981 whole entry): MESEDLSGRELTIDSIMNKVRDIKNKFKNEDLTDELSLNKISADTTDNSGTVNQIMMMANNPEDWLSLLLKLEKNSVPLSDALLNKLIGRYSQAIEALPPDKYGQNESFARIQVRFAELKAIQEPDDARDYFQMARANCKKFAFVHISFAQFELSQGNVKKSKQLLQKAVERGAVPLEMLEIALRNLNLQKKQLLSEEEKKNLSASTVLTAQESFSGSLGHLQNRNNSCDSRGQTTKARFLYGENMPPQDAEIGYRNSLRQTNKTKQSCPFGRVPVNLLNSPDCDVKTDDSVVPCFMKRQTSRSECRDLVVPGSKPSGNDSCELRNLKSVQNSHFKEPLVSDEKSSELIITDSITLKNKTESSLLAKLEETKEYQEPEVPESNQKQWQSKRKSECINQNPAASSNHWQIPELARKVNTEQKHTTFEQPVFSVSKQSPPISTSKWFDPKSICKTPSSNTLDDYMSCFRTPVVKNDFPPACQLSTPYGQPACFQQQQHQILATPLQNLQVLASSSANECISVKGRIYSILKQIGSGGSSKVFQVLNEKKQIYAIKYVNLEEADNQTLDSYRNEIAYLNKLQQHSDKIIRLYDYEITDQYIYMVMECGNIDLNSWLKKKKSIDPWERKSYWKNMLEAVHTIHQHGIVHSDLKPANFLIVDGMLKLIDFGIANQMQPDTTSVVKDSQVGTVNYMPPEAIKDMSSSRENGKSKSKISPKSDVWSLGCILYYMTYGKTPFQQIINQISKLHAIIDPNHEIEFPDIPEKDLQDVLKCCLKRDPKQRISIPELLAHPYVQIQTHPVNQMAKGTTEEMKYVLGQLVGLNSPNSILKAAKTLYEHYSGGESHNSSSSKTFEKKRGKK
Experiment: The concentration of Mps-1 in the assay was adjusted to the activity of the enzyme lot and was chosen appropriate to have the assay in the linear range, typical enzyme concentrations were in the range of about 1 nM (final conc. in the 5 μl assay volume).

IC50: < 1 nM
Structure (SMILES): COc1cc(C(=O)N2CC3(COC3)C2)ccc1Nc1nc2ccc(-c3ccc(C(=O)NCc4ccc(F)cc4)nc3)cn2n1
